In brackets after ≈: the same amount, converted by molar mass. Several values for one entry are separate records, joined by “and”; a condition that tells them apart may be missing. Equal values may be shown once. Read-outs that look alike come from different tables or passages of the source.
Columns and labels:
B. subtilis PY79 = assay: Minimum inhibitory concentration; type: cell-based; details: Bacillus subtilis
PBP1a/1b = PBP1a/1b (Bacillus subtilis, UniProt P39793); assay: Fluorescent whole cell β-lactam titration with Boc-FL readout, SDS-PAGE; type: cell-based
Chain of PBP1a/1b (P39793 77-662): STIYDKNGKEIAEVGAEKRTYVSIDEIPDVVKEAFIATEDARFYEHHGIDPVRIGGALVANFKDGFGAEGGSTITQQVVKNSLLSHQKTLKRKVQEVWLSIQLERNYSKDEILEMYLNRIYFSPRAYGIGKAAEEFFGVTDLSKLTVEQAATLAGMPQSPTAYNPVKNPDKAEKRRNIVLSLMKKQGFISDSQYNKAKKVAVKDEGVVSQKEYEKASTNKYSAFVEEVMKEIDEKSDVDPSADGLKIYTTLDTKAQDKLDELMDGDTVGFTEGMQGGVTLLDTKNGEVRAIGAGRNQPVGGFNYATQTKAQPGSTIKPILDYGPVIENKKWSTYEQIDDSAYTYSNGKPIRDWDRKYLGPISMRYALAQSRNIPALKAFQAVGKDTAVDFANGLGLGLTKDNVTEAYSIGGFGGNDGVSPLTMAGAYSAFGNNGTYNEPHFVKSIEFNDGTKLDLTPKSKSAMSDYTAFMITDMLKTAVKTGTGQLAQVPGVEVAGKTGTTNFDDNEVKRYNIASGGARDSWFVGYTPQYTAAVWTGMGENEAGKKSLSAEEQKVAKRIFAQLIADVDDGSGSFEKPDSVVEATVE

PBP2b/H = PBP2b/H (Bacillus subtilis, UniProt Q07868); assay: as above; type: cell-based; details: for inhibition of PBP2b at MIC: at growth inhibitory concentration, substantial inhibition (>50%) not the case
Chain of PBP2b/H (Q07868 whole entry): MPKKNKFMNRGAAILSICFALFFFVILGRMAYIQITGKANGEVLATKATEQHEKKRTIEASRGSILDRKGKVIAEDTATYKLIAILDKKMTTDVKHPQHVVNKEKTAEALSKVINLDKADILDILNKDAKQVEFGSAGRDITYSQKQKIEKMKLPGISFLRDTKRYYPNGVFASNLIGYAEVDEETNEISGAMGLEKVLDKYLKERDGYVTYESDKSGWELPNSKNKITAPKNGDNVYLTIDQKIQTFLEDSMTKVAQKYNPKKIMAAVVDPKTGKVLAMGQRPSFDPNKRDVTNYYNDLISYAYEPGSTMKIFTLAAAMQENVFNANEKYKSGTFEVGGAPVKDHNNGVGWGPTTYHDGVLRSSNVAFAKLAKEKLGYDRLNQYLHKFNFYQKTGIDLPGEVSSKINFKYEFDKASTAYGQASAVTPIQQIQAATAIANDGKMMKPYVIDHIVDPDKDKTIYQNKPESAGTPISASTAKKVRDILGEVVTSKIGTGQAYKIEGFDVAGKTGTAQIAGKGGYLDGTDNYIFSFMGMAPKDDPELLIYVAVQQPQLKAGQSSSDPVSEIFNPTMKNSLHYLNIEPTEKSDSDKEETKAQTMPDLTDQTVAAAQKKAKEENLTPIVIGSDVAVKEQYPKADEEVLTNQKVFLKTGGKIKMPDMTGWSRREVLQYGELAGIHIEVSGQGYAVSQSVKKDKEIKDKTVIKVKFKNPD

B. subtilis PBPs [1] = assay: PBP inhibition/selectivity profile across all detected PBPs; type: cell-based, Bacillus subtilis; details: at MIC
PBP3 [2] = biological target: T1, PBP3 (Bacillus subtilis, UniProt P42971); assay: Fluorescent whole cell β-lactam titration with Boc-FL readout, SDS-PAGE; type: cell-based
T1 sequence (P42971 whole entry): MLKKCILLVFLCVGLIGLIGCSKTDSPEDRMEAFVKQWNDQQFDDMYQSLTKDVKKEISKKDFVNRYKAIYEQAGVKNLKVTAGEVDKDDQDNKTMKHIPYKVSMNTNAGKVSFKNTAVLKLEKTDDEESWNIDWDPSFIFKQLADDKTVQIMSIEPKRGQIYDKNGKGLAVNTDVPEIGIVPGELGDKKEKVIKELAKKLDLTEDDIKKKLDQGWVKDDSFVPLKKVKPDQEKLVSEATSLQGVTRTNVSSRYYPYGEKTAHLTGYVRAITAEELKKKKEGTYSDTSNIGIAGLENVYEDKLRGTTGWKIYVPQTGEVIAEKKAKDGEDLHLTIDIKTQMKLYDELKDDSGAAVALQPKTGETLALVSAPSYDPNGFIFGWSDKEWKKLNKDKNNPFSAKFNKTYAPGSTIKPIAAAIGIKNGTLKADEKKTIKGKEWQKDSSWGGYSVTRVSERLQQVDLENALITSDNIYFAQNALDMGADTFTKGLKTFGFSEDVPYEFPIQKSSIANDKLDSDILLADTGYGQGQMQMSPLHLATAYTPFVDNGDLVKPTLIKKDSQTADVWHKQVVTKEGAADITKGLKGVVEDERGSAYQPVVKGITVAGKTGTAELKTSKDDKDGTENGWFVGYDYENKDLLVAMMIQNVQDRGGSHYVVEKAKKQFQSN

PBP2a = PBP2a (Bacillus subtilis, UniProt P54488); assay: as above; type: cell-based
Chain of PBP2a (P54488 whole entry): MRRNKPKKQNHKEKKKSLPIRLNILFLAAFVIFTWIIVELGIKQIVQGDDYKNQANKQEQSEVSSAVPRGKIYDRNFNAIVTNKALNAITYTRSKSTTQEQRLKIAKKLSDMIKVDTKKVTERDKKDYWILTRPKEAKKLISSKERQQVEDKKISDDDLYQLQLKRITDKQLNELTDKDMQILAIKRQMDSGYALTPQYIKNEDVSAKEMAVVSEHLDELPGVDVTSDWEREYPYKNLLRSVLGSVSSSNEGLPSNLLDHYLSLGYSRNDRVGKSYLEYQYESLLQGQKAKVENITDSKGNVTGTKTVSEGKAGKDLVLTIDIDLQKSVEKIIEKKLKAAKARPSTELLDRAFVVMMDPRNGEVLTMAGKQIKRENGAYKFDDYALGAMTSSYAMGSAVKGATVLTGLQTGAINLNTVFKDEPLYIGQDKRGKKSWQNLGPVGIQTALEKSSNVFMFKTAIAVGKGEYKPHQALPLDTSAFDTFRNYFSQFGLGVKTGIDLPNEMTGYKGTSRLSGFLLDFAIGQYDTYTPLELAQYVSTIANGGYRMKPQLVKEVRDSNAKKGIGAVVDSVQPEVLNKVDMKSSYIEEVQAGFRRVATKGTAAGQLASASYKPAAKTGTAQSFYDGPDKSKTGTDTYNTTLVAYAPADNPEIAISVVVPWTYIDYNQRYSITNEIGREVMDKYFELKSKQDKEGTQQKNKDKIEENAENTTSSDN

PBP5 = PBP5 (Bacillus subtilis, UniProt P08750); assay: as above; type: cell-based
Chain of PBP5 (P08750 32-443): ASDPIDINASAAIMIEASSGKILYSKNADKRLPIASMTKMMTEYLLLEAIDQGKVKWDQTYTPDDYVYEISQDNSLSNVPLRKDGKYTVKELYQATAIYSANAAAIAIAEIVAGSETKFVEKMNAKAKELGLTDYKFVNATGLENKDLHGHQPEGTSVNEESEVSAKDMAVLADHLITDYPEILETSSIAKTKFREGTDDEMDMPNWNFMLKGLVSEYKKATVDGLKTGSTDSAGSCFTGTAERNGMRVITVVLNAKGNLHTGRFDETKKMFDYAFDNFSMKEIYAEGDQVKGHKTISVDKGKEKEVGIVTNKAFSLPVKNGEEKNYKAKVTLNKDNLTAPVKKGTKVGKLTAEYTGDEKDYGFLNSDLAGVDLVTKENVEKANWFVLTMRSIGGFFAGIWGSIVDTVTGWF

PBP4 = PBP4 (Bacillus subtilis, UniProt P40750); assay: as above; type: cell-based
Chain of PBP4 (P40750 22-624): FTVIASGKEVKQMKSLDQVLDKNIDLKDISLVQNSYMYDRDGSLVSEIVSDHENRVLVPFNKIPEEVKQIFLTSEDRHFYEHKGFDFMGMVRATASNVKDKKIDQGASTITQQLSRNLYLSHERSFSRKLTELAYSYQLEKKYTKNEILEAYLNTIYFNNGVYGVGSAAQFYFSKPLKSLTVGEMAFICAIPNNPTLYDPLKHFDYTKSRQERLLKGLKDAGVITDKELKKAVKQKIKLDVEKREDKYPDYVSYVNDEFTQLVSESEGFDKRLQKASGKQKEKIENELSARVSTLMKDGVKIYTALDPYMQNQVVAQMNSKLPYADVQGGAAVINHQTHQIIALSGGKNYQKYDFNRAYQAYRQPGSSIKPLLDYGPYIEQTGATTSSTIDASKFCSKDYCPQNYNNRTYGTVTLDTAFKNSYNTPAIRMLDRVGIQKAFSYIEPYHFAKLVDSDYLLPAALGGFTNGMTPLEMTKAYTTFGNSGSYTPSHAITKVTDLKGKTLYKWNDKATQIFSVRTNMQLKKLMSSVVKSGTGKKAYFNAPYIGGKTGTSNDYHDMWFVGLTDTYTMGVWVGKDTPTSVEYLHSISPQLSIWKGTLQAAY

B. subtilis PBPs [3] = assay: β-Lactam titration of DK694; type: cell-based, Bacillus subtilis; details: DK694 (ΔpbpH) cells
B. subtilis PBPs [4] = assay: PBP activity profile after growth with sub-MIC meropenem; type: cell-based, Bacillus subtilis; details: 0.01 μg/mL, 2 h
PBP3 [5] = biological target: T1, PBP3; assay: Fluorescence imaging of PBP3 activity with MEM-BODIPY FL in live DK654; type: cell-based; details: pretreatment 10 μg/mL
[6] = IC50 PBP3, B. subtilis PY79 whole cells, average of two experiments
[7] = read-out: IC50 PBP2a, B. subtilis PY79 whole cells, average of two experiments

Row | SMILES | MIC (B. subtilis PY79) [µg/mL] | IC50 (PBP1a/1b) [µM] | IC50 (PBP2b/H) [µM] | inhibition of PBP2b at MIC (PBP2b/H) [%] | PBP inhibition at growth inhibitory concentrations (B. subtilis PBPs [1]) | IC50 (PBP3 [2]; [6]) [µM] | IC50 (PBP2a) [µM] | IC50 (PBP5) [µM] | IC50 (PBP4) [µM] | IC50 values for individual PBPs in DK694 (ΔpbpH) versus wild type (B. subtilis PBPs [3]) | IC50 (PBP2a; [7]) [µM] | IC50 (PBP3 [2]; read-out: IC50 PBP3, B. subtilis PY79 whole cells, average of two experiments) [µM] | IC50 (PBP3 [2]; 50% inhibition of PBP3, concentration in μM, corresponding to 0.26 μg/mL) [µM] | concentration for complete inhibition of PBP3 (PBP3 [2]; B. subtilis whole cells) | concentration for complete inhibition of PBP3 (PBP3 [2]; corresponding to 1 μg/mL) [µM] | PBP inhibition after growth with sub-MIC concentration (B. subtilis PBPs [4]) | concentration for selective and complete inhibition of PBP5 (PBP5; B. subtilis whole cells) | concentration for selective and complete inhibition of PBP5 (PBP5; corresponding to ~1 μg/mL) [µM] | MEM-BODIPY FL fluorescent signal upon pretreatment of the cells (PBP3 [5])
1 | CC1(C)S[C@@H]2[C@H](N)C(=O)N2[C@H]1C(=O)O [6-APA, 6-Aminopenicillanic acid] | 8 to 256 (≈ 37 to 1180 µM) | > 4620 | > 4620 | ≤ 50 | failed to significantly block any PBPs | > 4620 | 511 | 19 | > 4620 |  |  |  |  |  |  |  |  |  | 
2 | CC1(C)S[C@@H]2[C@H](NC(=O)[C@H](N)c3ccc(O)cc3)C(=O)N2[C@H]1C(=O)O [amoxicillin] | 4 (≈ 10.9 µM) | 0.00274 | 0.241 |  |  | 0.383 | 0.203 | 3.04 | 0.208 |  |  |  |  |  |  |  |  |  | 
3 | CC1(C)S[C@@H]2[C@H](NC(=O)[C@H](N)c3ccccc3)C(=O)N2[C@H]1C(=O)O [ampicillin] | 8 (≈ 22.9 µM) | < 0.0286 | 0.0269 |  |  | 0.12 | 0.0103 | 0.343 | 0.0106 | comparable and within twofold in most cases |  |  |  |  |  |  |  |  | 
4 | C[C@H]1[C@H](NC(=O)/C(=N\OC(C)(C)C(=O)O)c2csc(N)n2)C(=O)N1S(=O)(=O)O [aztreonam] | 16 (≈ 36.7 µM) |  |  | ≤ 50 |  |  |  |  |  |  |  |  |  |  |  |  |  |  | 
5 | CO/N=C(\C(=O)N[C@@H]1C(=O)N2C(C(=O)O)=C(COC(C)=O)CS[C@H]12)c1csc(N)n1 [cefotaxime] | 0.0625 (≈ 0.137 µM) | 0.00285 | < 0.22 |  |  | 2.17 |  | > 2200 | < 0.22 |  | < 220 |  |  |  |  |  |  |  | 
6 | CO[C@@]1(NC(=O)Cc2cccs2)C(=O)N2C(C(=O)O)=C(COC(N)=O)CS[C@@H]21 [cefoxitin] | 1 (≈ 2.34 µM) | 0.0328 | 0.444 |  |  | 2.43 | 1.68 | 0.444 | 0.0328 |  |  |  |  |  |  |  |  |  | 
7 | NC(=O)c1cc[n+](CC2=C(C(=O)O)N3C(=O)[C@@H](NC(=O)[C@@H](c4ccccc4)S(=O)(=O)[O-])[C@H]3SC2)cc1 [cefsulodin] | 8 (≈ 15 µM) | 0.0184 | 1.24 |  |  | 260 | 71.4 | > 1880 | 0.225 |  |  |  |  |  |  |  |  |  | 
8 | CO/N=C(\C(=O)N[C@@H]1C(=O)N2C(C(=O)O)=C(CSc3nc(=O)c(=O)[nH]n3C)CS[C@H]12)c1csc(N)n1 [ceftriaxone] | 0.25 (≈ 0.451 µM) | 0.0135 | 0.119 |  |  | 4.69 | 29.4 | > 1800 | 0.0361 |  |  |  |  |  |  |  |  |  | 
9 | CO/N=C(\C(=O)N[C@@H]1C(=O)N2C(C(=O)O)=C(COC(N)=O)CS[C@H]12)c1ccco1 [cefuroxime] | 0.125 (≈ 0.295 µM) | 0.00424 | 0.189 |  |  | 52.3 | 65.7 | > 2360 | 0.0353 |  |  |  |  |  |  |  |  |  | 
10 | CC1=C(C(=O)O)N2C(=O)[C@@H](NC(=O)[C@H](N)c3ccccc3)[C@H]2SC1 [cephalexin] | 0.5 (≈ 1.44 µM) | > 2880 | < 0.288 |  |  | 69.4 | < 0.288 | > 2880 | 732 |  |  |  |  |  |  |  |  |  | 
11 | CC(=O)OCC1=C(C(=O)O)N2C(=O)[C@@H](NC(=O)Cc3cccs3)[C@H]2SC1 [cephalothin] | 0.0312 (≈ 0.0788 µM) | 0.00656 | 0.0192 |  |  | 29.8 | 0.0164 | 273 | 0.0151 |  |  |  |  |  |  |  |  |  | 
12 | Cc1onc(-c2ccccc2Cl)c1C(=O)N[C@@H]1C(=O)N2[C@@H]1SC(C)(C)[C@@H]2C(=O)O [cloxacillin] | 0.125 (≈ 0.287 µM) | > 2290 | 0.298 | ≤ 50 |  |  | 0.206 | > 2290 | 0.0505 |  |  | < 2290 |  |  |  |  |  |  | 
13 | C[C@@H](O)[C@H]1C(=O)N2C(C(=O)O)=C(S[C@@H]3CN[C@H](CNS(N)(=O)=O)C3)[C@H](C)[C@H]12 [doripenem] | 0.0625 (≈ 0.149 µM) | > 2380 |  |  |  | 0.285 |  | 0.547 | > 2380 |  | < 2380 |  |  |  |  |  |  |  | 
14 | C[C@@H](O)[C@H]1C(=O)N2C(C(=O)O)=C([C@H]3CCCO3)S[C@H]12 [faropenem] | 0.125 (≈ 0.438 µM) | 0.00207 | 0.0179 |  |  | 3.29 | 0.0386 | 0.701 | 0.0315 |  |  |  |  |  |  |  |  |  | 
15 | CC1(C)S[C@@H]2[C@H](/N=C/N3CCCCCC3)C(=O)N2[C@H]1C(=O)O [mecillinam] | 16 (≈ 49.2 µM) | > 3070 | 3.29 |  |  | 275 | 20.6 | > 3070 | > 3070 |  |  |  |  |  |  |  |  |  | 
16 | C[C@@H](O)[C@H]1C(=O)N2C(C(=O)O)=C(S[C@@H]3CN[C@H](C(=O)N(C)C)C3)[C@H](C)[C@H]12 [meropenem] | 0.0625 (≈ 0.163 µM) | > 2610 |  | ≤ 50 |  | 0.678 |  | 0.574 | ≥ 2610 |  | < 2610 |  | 0.67 | ~ 1 μg/mL and 1 μg/mL | 2.6 | No significant inhibition | ~ 1 μg/mL | 2.6 | significantly reduced
17 | COc1cccc(OC)c1C(=O)N[C@@H]1C(=O)N2[C@@H]1SC(C)(C)[C@@H]2C(=O)O [methicillin] | 0.25 (≈ 0.657 µM) | > 2630 | < 0.263 |  |  | 23.7 | < 0.0263 | 391 | 0.289 | comparable and within twofold in most cases |  |  |  |  |  |  |  |  | 
18 | Cc1onc(-c2ccccc2)c1C(=O)N[C@@H]1C(=O)N2[C@@H]1SC(C)(C)[C@@H]2C(=O)O [oxacillin] | 0.25 (≈ 0.623 µM) | > 2490 | 0.152 | ≤ 50 |  | 166 | 0.139 | > 2490 | < 0.249 |  |  |  |  |  |  |  |  |  | 
19 | CC1(C)S[C@@H]2[C@H](NC(=O)Cc3ccccc3)C(=O)N2[C@H]1C(=O)O [penicillin G] | 16 (≈ 47.8 µM) | > 2990 | 0.0568 |  |  | 4.19 | 0.0129 |  | 0.0269 |  |  |  |  |  |  |  |  |  | 
20 | CC1(C)S[C@@H]2[C@H](NC(=O)COc3ccccc3)C(=O)N2[C@H]1C(=O)O [penicillin V] | 32 (≈ 91.3 µM) | < 0.0285 | < 0.0285 |  |  | 5.82 | 0.0012 | 1.77 | < 0.0285 |  |  |  |  |  |  |  |  |  | 
21 | CCN1CCN(C(=O)N[C@@H](C(=O)N[C@@H]2C(=O)N3[C@@H]2SC(C)(C)[C@@H]3C(=O)O)c2ccccc2)C(=O)C1=O [piperacillin] | 64 (≈ 124 µM) | 0.00232 | < 1.93 |  |  | 3.67 | 0.309 | 21.8 | 0.058 |  |  |  |  |  |  |  |  |  | 

From paper PMC7784776 (ACS chemical biology, 2020)
